Our source for the activation values is publication PMC10175918 (Communications Biology, 2023).

Like-named read-outs stand apart in the source and are kept apart here.

Common to all, as to assay: TGFα-shedding assay-based GPCR screening with chimeric Gα subunit proteins
Holding throughout (assay type): cell-based

Assay [1] addresses T1, 348 GPCRs (Homo sapiens, UniProt Q92633).
T1 construct: expressed in transfected cells; host or cells: HEK293A
Conditions: 10µM, Favipiravir 100μM.

Assay [2] concerns the target T2, 348 GPCRs (Homo sapiens, UniProt Q86SQ4).
T2 construct: expressed in transfected cells; host or cells: HEK293A
T2 sequence (Q86SQ4 38-1221): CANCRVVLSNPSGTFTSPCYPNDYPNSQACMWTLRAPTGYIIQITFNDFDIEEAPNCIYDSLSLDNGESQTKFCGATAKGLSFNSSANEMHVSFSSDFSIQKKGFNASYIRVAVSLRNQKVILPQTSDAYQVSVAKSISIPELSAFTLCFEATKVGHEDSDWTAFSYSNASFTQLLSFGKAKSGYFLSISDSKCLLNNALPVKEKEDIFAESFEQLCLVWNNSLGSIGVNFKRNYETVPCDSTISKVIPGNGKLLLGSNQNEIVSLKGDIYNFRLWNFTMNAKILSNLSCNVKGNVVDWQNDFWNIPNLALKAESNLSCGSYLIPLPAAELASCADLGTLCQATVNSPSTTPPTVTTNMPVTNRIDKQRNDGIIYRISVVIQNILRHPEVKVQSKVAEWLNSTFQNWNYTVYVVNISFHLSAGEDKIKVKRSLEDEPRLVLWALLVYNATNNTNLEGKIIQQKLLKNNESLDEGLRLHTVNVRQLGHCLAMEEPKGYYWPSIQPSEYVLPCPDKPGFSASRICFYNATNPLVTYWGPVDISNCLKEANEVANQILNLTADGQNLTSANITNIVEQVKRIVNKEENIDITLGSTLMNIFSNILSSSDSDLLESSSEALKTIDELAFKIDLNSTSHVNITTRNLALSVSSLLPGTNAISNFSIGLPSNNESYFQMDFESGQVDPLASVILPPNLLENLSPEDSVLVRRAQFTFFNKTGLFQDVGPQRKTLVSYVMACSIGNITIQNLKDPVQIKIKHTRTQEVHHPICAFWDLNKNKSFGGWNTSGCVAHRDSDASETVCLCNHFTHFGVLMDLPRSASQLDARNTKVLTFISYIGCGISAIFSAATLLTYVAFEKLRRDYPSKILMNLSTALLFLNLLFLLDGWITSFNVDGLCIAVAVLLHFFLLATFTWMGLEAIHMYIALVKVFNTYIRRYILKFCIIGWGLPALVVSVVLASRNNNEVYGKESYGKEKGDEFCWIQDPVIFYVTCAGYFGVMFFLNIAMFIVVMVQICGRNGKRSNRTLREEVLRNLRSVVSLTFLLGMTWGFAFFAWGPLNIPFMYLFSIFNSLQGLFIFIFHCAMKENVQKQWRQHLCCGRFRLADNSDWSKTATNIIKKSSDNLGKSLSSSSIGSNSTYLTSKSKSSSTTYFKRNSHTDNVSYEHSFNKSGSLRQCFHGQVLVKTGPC
Conditions: 10µM, Favipiravir 100μM.

The target in assay [3] is T3, 348 GPCRs (Homo sapiens, UniProt O15303).
T3 construct: expressed in transfected cells; host or cells: HEK293A
Conditions: 10µM, Favipiravir 100μM.

For assay [4], the target named is T4, 348 GPCRs (Homo sapiens, UniProt Q96G91).
T4 construct: expressed in transfected cells; host or cells: HEK293A
T4 sequence (Q96G91 1-374): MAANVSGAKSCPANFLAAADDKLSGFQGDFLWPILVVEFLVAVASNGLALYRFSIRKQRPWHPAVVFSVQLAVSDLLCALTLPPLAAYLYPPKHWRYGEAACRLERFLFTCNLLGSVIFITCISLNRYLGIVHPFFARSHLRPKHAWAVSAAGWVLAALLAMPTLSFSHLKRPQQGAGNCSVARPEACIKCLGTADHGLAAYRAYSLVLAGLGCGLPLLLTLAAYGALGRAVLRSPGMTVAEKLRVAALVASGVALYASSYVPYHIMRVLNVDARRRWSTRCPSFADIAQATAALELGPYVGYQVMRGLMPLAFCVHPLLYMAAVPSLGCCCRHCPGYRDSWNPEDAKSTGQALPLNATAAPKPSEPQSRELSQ

For assay [5], the target named is T5, 348 GPCRs (Homo sapiens, UniProt O43613).
T5 construct: expressed in transfected cells; host or cells: HEK293A
T5 sequence (O43613 1-425): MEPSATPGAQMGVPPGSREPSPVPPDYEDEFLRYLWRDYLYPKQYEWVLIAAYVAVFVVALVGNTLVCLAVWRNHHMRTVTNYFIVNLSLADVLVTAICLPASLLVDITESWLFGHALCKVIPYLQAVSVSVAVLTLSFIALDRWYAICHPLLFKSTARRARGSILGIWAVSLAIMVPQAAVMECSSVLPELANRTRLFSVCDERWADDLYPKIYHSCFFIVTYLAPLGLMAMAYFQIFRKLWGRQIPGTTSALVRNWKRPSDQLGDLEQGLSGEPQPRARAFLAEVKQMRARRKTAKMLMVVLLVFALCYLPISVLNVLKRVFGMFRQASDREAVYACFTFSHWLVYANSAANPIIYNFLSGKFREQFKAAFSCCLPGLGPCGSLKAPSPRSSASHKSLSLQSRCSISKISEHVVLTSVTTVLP
The conditions noted are these: 10µM, Favipiravir 100μM.

Assay [6] concerns the target T6, 348 GPCRs (Homo sapiens, UniProt P35368).
T6 construct: expressed in transfected cells; host or cells: HEK293A
T6 sequence (P35368 1-520): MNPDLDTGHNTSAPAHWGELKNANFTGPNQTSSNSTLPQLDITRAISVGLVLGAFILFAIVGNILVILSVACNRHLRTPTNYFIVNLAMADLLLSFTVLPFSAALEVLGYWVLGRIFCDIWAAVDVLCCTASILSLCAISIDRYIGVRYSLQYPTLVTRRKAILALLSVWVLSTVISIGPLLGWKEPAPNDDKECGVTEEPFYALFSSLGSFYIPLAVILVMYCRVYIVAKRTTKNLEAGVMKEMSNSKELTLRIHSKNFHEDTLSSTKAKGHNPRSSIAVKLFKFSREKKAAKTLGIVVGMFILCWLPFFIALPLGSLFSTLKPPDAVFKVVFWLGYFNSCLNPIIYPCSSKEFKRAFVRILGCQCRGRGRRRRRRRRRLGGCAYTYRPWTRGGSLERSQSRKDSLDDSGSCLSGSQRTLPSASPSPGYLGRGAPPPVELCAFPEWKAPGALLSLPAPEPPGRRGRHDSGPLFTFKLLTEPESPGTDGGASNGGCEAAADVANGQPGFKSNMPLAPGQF

Setting [7] is: read-out: % GPCR activation compared to TPA, LPAR1 (lysophosphatidic acid receptor 1).
[8] abbreviates: read-out: % GPCR activation compared to TPA, GPR126 (Adhesion G Protein-Coupled Receptor G6 (ADGRG6)).
Where [9] appears, read: read-out: % GPCR activation compared to TPA, GRM6 (glutamate receptor, metabotropic 6).
Where [10] appears, read: read-out: % GPCR activation compared to TPA, GPCR P2Y11 (purinergic receptor P2Y, G-protein coupled, 11).
Where [11] appears, read: read-out: % GPCR activation compared to TPA, HCRTR1 (hypocretin (orexin) receptor 1).
Where [12] appears, read: read-out: % GPCR activation compared to TPA, GPCR α1B (adrenoceptor alpha 1B).
The mark [13] stands for this setting: LPAR1 (lysophosphatidic acid receptor 1), read-out: % GPCR activation compared to TPA.
The mark [14] stands for this setting: GPR126 (Adhesion G Protein-Coupled Receptor G6 (ADGRG6)), read-out: % GPCR activation compared to TPA.
Where [15] appears, read: GRM6 (glutamate receptor, metabotropic 6), read-out: % GPCR activation compared to TPA.
[16] abbreviates: HCRTR1 (hypocretin (orexin) receptor 1), read-out: % GPCR activation compared to TPA.
[17] abbreviates: GPCR P2Y11 (purinergic receptor P2Y, G-protein coupled, 11), read-out: % GPCR activation compared to TPA.
Where [18] appears, read: GPCR α1B (adrenoceptor alpha 1B), read-out: % GPCR activation compared to TPA.

T1 sequence (Q92633 whole entry): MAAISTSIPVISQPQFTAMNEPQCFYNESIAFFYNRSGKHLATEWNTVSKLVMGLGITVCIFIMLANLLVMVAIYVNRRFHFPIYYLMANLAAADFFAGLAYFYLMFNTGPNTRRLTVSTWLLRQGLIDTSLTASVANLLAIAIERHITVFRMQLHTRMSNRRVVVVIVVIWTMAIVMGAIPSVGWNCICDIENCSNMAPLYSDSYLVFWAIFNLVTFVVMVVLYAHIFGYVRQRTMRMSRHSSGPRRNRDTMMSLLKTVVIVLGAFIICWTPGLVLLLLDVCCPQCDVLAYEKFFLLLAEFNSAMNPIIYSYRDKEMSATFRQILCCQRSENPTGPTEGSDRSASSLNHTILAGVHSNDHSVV
T3 sequence (O15303 25-877): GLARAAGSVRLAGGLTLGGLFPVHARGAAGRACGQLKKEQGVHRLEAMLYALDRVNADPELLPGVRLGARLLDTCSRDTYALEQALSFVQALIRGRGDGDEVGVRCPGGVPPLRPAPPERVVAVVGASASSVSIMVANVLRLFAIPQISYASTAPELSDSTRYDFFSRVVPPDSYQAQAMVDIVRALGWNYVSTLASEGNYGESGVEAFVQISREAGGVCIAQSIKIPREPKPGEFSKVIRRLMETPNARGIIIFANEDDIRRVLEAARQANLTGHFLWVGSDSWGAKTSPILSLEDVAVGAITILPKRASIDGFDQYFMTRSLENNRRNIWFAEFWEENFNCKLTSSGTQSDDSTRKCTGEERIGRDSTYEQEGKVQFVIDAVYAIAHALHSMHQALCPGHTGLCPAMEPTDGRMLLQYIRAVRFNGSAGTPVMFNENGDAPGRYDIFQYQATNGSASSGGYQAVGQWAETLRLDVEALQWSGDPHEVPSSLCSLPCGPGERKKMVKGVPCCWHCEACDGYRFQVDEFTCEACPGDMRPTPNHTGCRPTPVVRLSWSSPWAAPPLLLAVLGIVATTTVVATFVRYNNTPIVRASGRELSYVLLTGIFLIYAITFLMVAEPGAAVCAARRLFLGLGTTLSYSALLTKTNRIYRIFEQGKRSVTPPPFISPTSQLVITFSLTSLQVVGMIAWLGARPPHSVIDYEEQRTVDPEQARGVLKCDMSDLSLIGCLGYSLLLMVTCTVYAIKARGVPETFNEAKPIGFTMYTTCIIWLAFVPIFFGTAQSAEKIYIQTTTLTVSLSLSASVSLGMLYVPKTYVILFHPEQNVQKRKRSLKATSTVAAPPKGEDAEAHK

On to `CC(C)OC(=O)[C@H](C)N[P@](=O)(OC[C@H]1O[C@@H](n2ccc(=O)[nH]c2=O)[C@](C)(F)[C@@H]1O)Oc1ccccc1` [sofosbuvir], for which the activation at 10 µM on 348 GPCRs [1] (setting [7]) was 3.41%; at 348 GPCRs [3] (setting [9]) it was 2.66%; at 348 GPCRs [4] (setting [10]), -20.5%; at 348 GPCRs [6] (setting [12]), 0.342%. Further, the activation at 100 µM is -2.49% at 348 GPCRs [2] (setting [8]) and -0.162% on 348 GPCRs [5] (setting [11]).

Consider `NC(=O)c1nc(F)cnc1O` [favipiravir, 6-fluoro-3-hydroxy-2-pyrazinecarboxamide], for which the activation at 10 µM at 348 GPCRs [1] (setting [13]) is 0.687%; on 348 GPCRs [3] (setting [15]) it was -0.482%. Further, the activation at 100 µM on 348 GPCRs [2] (setting [14]) is -2.03%; at 348 GPCRs [4] (GPCR P2Y11 (purinergic receptor P2Y, G-protein coupled, 11), 100μM, read-out: % GPCR activation compared to TPA) it was -11.1%; on 348 GPCRs [5] (setting [16]), 12.9%; at 348 GPCRs [6] (GPCR α1B (adrenoceptor alpha 1B), 100μM, read-out: % GPCR activation compared to TPA), -1.61%.

Turning to `CCC(CC)COC(=O)[C@H](C)N[P@](=O)(OC[C@H]1O[C@@](C#N)(c2ccc3c(N)ncnn23)[C@H](O)[C@@H]1O)Oc1ccccc1` [remdesivir], the activation at 10 µM was 0.719% on 348 GPCRs [1] (setting [7]), -1.74% on 348 GPCRs [3] (setting [9]), -12.5% at 348 GPCRs [4] (setting [10]) and -0.0202% at 348 GPCRs [6] (setting [12]). Moreover, the activation at 100 µM on 348 GPCRs [2] (setting [8]) is -0.536%; on 348 GPCRs [5] (setting [11]), 16.7%.

Consider `N#C[C@@]1(c2ccc3c(N)ncnn23)O[C@H](CO)[C@@H](O)[C@H]1O` [GS441524], for which the activation at 10 µM on 348 GPCRs [1] (setting [13]) was 1.19%; on 348 GPCRs [3] (setting [15]), -1.17%; at 348 GPCRs [4] (setting [17]), -16.3%; on 348 GPCRs [6] (setting [18]) it was -1.17%. Also, the activation at 100 µM at 348 GPCRs [2] (setting [14]) is -3.47%; at 348 GPCRs [5] (setting [16]), 16.9%.

Take `CC(C)C(=O)OC[C@H]1O[C@@H](n2ccc(NO)nc2=O)[C@H](O)[C@@H]1O` [molnupiravir]: the activation at 10 µM on 348 GPCRs [1] (setting [13]) was -1.42%; on 348 GPCRs [3] (setting [15]), -2.76%; on 348 GPCRs [4] (setting [17]), -21.8%; on 348 GPCRs [6] (setting [18]), 0.493%. Moreover, the activation at 100 µM is -3.31% on 348 GPCRs [2] (setting [14]) and 1.7% on 348 GPCRs [5] (setting [16]).
